Reference: paper PMC4626375, “In Vitro Mutational and Bioinformatics Analysis of the M71 Odorant Receptor and Its Superfamily” (PLoS ONE, 2015)

Tests used:
[1] = biological target: T1, M71 odorant receptor (Mus musculus, UniProt Q60893); assay: patch clamp of dendritic knobs of M71- or M71::GFP-expressing olfactory sensory neurons, dose response; type: cell-based; parameters: gene Or8a1; full-length M71 and M71::GFP C-terminal fusion expressed in olfactory sensory neurons
T1 sequence (Q60893 1-309): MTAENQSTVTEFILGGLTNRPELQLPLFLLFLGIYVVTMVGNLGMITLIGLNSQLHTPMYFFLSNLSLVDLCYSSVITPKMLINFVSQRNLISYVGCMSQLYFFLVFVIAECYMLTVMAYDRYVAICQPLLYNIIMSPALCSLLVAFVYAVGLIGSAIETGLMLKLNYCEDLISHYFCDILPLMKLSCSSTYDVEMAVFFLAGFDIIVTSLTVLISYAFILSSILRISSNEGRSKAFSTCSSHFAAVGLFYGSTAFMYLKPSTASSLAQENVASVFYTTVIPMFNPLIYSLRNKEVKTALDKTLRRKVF

[2] = biological target: T1, M71 odorant receptor; parameters: gene Or8a1

Structure (SMILES) | EC50 [1] | patch clamp of dendritic knobs of olfactory sensory neurons, peak current at 10 [2]
CC(=O)c1ccccc1N [2aACP, 2-amino acetophenone] | 650 ± 80 nM | –
CCc1occc(=O)c1O [eMLT, ethyl maltol] | – | olfactory neurons expressing either M71 or M71::GFP are activated by M71 specific ligands
